Assay results: publication PMC11239830, “Synthetic macrolides overcoming MLSBK-resistant pathogens” (Cell Discovery, 2024)
Like-named read-outs stand apart in the source and are kept apart here.

Columns and labels:
S. pneumoniae = assay: MIC, broth microdilution; format: cell-based, Streptococcus pneumoniae
How it was run: (§1)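 Minimum inhibitory concentrations were measured by broth microdilution following CLSI guidelines. Plates were incubated at 37 °C for 16–20 h before results were read and recorded, and each determination was repeated at least three times.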

S. pyogenes = assay: MIC, broth microdilution; format: cell-based, Streptococcus pyogenes
How it was run: as §1

S. aureus = assay: MIC, broth microdilution; format: cell-based, Staphylococcus aureus
How it was run: as §1

M. catarrhalis = assay: MIC, broth microdilution; format: cell-based, Moraxella catarrhalis; conditions: Moraxella catarrhalis; M. catarrhalis 13L332, Ery-S; read-out: MIC
Experimental: MICs were determined by the microdilution method according to the Clinical and Laboratory Standards Institute guidelines. Briefly, the stock solution of compounds and the reference antibiotics were diluted 2-fold in sterile 96-well plates with cation-adjusted Mueller-Hinton broth, and mixed with CAMHB-containing bacteria to give a final inoculum of 5 × 10^5 CFU/mL for broth microdilution experiments. […] Finally, the 96-well plates were incubated at 37 °C for 16–20 h to observe and record the results. The lowest concentration at which no bacterial growth could be observed visually was identified as the MICs of the compounds. The assay for MICs was replicated at least three times.

[1] = tested on: 15B196 S. aureus ribosomes (A2058-methylated); assay: PURE in vitro translation inhibition assay; format: biochemical, Staphylococcus aureus; conditions: mean ± SD
Experimental: (§2) To validate the in vitro activity of our compounds, we employed an in vitro reconstituted E. coli Protein synthesis Using a Recombinant Elements (PURE) translation system, substituting E. coli ribosomes with the purified S. aureus ribosomes.
(§3) 5 μL of PURE reaction mix that translates a gene encoding the Nanoluc luciferase was set up in the presence or absence of tested compounds. Protein synthesis was initiated by incubating reactions at 37 °C for 60 min and stopped by placing on ice for 5 min. Luciferase activity was quantified using the Nano-Glo luciferase assay system and read on a GloMax 20/20 luminometer (Promega, USA). For each compound, the in vitro translation inhibition assay was performed in three biological triplicates over a range of concentrations from 0.001 μM to 1000 μM. A compound-free control was used to normalize luminescence measurements. The calculated luminescence percentages were plotted against compound concentrations on a semilog scale using GraphPad Prism.

WT S. aureus ribosomes = assay: PURE in vitro translation inhibition assay; format: biochemical, Staphylococcus aureus; conditions: mean ± SD
Experimental: as §2, §3

[2] = CCK-8 assay for cytotoxicity; format: cell-based, human; conditions: human, HEK293T cells, HEK293T cell viability
Experimental: HepG2 cells (6 × 10^3) and HEK293T cells (4 × 10^3) were seeded into 96-well plates in 90 μL of DMEM medium containing 10% FBS per well. […] After overnight incubation, the test compound stock solution was diluted with DMEM medium containing 10% FBS to every target concentration, and 10 μL of each was added to each well. Three parallel experiments were set up for each compound. After incubation for 48 h, 10 μL of cell counting kit-8 (CCK-8) reagent was added to each well in sequence according to the manufacturer’s instructions. […] This experiment was independently repeated three times. The data were processed by GraphPad Prism.

[3] = Staphylococcus aureus, All S. aureus (24)
[4] = Staphylococcus aureus, i-MLSB S. aureus (10)

CC[C@H]1OC(=O)[C@H](C)C(=O)[C@H](C)[C@@H](O[C@@H]2O[C@H](C)C[C@H](N(C)C)[C@H]2O)[C@](C)(OC)C[C@@H](C)C(=O)[C@H](C)[C@H]2N(CCCCn3cnc(-c4cccnc4)c3)C(=O)O[C@]12C [telithromycin, reference compound]
0.12 µg/mL: MIC (S. pneumoniae; S. pneumoniae 21C315, Clinical, c-ermB) | MIC (S. pneumoniae; S. pneumoniae 21M277, Clinical, c-ermB) | MIC (S. pneumoniae; S. pneumoniae 21W257, Clinical, c-ermB, mef) | MIC (S. aureus; S. aureus 21C187, Clinical, MRSA, i-ermA) | MIC (S. aureus; S. aureus 21D115, Clinical, MSSA, i-ermC) | MIC (S. aureus; S. aureus PU32, Clinical, MRSA, i-ermA)
0.5 µg/mL: MIC (S. pneumoniae; Streptococcus pneumoniae, S. pneumoniae PU09, mef, read-out: MIC) | MIC (S. pyogenes; S. pyogenes 12-207, Clinical, mef) | MIC (S. aureus; S. aureus 21P404, Clinical, MSSA, i-ermC) | MIC50 (S. aureus; Staphylococcus aureus, MSSA, MSSA (10))
4 µg/mL: MIC (S. pneumoniae; Streptococcus pneumoniae, S. pneumoniae 05O173, c-ermB, mef, read-out: MIC)
16 µg/mL: MIC (S. pyogenes; S. pyogenes 21C303, Clinical, c-ermB) | MIC (S. pyogenes; S. pyogenes 21D200, Clinical, c-ermB) | MIC (S. pyogenes; S. pyogenes 21M063, Clinical, c-ermB) | MIC (S. aureus; S. aureus 21Q253, Clinical, MRSA, c-ermB) | MIC50 (S. aureus; [3])
0.008 µg/mL: MIC (S. pneumoniae; S. pneumoniae ATCC49619)
0.06 µg/mL: MIC (S. pneumoniae; S. pneumoniae 21Q352, Clinical, i-MLSB)
128 µg/mL: MIC (S. aureus; S. aureus 15B196, Clinical, MRSA, c-ermB) | MIC (S. aureus; S. aureus 21N354, Clinical, MRSA, c-ermB) | MIC50 (S. aureus; Staphylococcus aureus, MRSA, MRSA (13))
64 µg/mL: MIC (S. aureus; Staphylococcus aureus, S. aureus 15B196, c-ermB, read-out: MIC)
8 µg/mL: MIC (S. pyogenes; S. pyogenes 21D184, Clinical, c-ermB) | MIC (S. pyogenes; S. pyogenes 21D199, Clinical, c-ermB) | MIC (S. pyogenes; S. pyogenes 21W186, Clinical, c-ermTR)
> 100 µM: CC50 at 48 h [2]
0.03 µg/mL: MIC (S. pneumoniae; S. pneumoniae 21Q353, Clinical, i-MLSB)
0.016 µg/mL: MIC (S. pneumoniae; S. pneumoniae 21X435, Clinical) | MIC (S. pyogenes; S. pyogenes 01-968, Clinical, i-ermB)
0.25 µg/mL: MIC (S. pneumoniae; S. pneumoniae 21D016, Clinical, c-ermB, mef) | MIC (S. pneumoniae; S. pneumoniae 21D020, Clinical, c-ermB, mef) | MIC (S. aureus; S. aureus 21B212, Clinical, MSSA, i-ermC) | MIC (S. aureus; S. aureus 21C173, Clinical, MSSA, i-ermC) | MIC (S. aureus; S. aureus 21F207, Clinical, MRSA, i-ermC) | MIC (S. aureus; S. aureus 21K194, Clinical, MSSA, i-ermC) | MIC (S. aureus; S. aureus 21X388, Clinical, i-ermA (MRSA in Table S9, MSSA in Fig. 2a)) | MIC (S. aureus; S. aureus 21Y223, Clinical, MRSA, i-ermC) | MIC (S. aureus; S. aureus ATCC29213) | MIC50 (S. aureus; [4]) | MIC90 (S. aureus; [4]) | MIC (M. catarrhalis)
1 µg/mL: MIC (S. pneumoniae; S. pneumoniae PU09, mef) | MIC (S. pyogenes; S. pyogenes 21K003, Clinical, mef)
> 256 µg/mL: MIC (S. aureus; S. aureus 21B200, Clinical, MRSA, c-ermB) | MIC (S. aureus; S. aureus 21B207, Clinical, MRSA, c-ermB) | MIC (S. aureus; S. aureus 21C174, Clinical, MSSA, c-ermB) | MIC (S. aureus; S. aureus 21D112, Clinical, MSSA, c-ermB) | MIC (S. aureus; S. aureus 21F198, Clinical, MRSA, c-ermB) | MIC (S. aureus; S. aureus 21F206, Clinical, MSSA, c-ermB) | MIC (S. aureus; S. aureus 21P191, Clinical, MSSA, c-ermC) | MIC (S. aureus; S. aureus 21P407, Clinical, MRSA, c-ermB) | MIC (S. aureus; S. aureus 21R216, Clinical, MSSA, c-ermC) | MIC (S. aureus; S. aureus 21T141, Clinical, MRSA, c-ermB) | MIC90 (S. aureus; [3]) | MIC50 (S. aureus; Staphylococcus aureus, c-MLSB (constitutive) S. aureus (13)) | MIC90 (S. aureus; Staphylococcus aureus, MRSA (13)) | MIC90 (S. aureus; Staphylococcus aureus, MSSA (10))
0.38 ± 0.13 µM: IC50 (WT S. aureus ribosomes)
32 µg/mL: MIC (S. aureus; S. aureus 15B196, c-ermB)
> 10 µM: IC50 [1]
